Results reported in publication PMC10648875 (Antimicrobial Agents and Chemotherapy, 2023).
Converted amounts (≈) assume the structure as drawn. “And” between values parts separate entries of the source, which are not always exact repeats. Identical values can stand only once. Like-named read-outs stand apart in the source and are kept apart here.

Columns and labels:
[1] = test system: E. coli CDC 0069 (EC1106), NDM-1; experiment: MIC, reference strain; type: cell-based; details: BLI at the fixed concentration in brackets
Description: (§1) Other BL/BLI combinations were tested at their recommended BLI concentrations. MIC values for the partner antibiotics and BLIs alone were also determined (Table 2; Table S1). All investigational and marketed BLIs enhanced the potency of antibiotics according to their spectrum of inhibition. MIC values against CLSI-approved QC strains were within acceptable ranges for drugs and combinations tested (Table 3).
(§2) Isolates were tested for antimicrobial susceptibility using the broth microdilution methodology per CLSI M07 (2018) guidelines ([40]). JMI Laboratories produced frozen-form 96-well panels with cation-adjusted Mueller-Hinton broth as the testing medium. Current CLSI quality assurance practices were followed when performing the susceptibility tests. MIC values were validated by concurrently testing the following CLSI-recommended ([27]) QC reference strains: E. coli NCTC 13353 (CTX-M-15), Klebsiella pneumoniae ATCC BAA-2814 (KPC-3), Klebsiella pneumoniae ATCC BAA-1705 (KPC-2), and K. pneumoniae ATCC 700603 (SHV-18). The inoculum density during susceptibility testing was monitored by bacterial colony counts. Where applicable, QC ranges for tested reference strains were those approved or published by the CLSI ([27]).

[2] = test system: K. pneumoniae CDC 0135 (KP1291), VIM-1; experiment: MIC, reference strain; type: cell-based; details: BLI at the fixed concentration in brackets
Description: as §1, §2

[3] = test system: Klebsiella pneumoniae ATCC 700603 (KPM2881), SHV-18; experiment: MIC, reference strain; type: cell-based; details: for MIC: SHV-18, BLI at the fixed concentration in brackets; for MIC (number of observations): Table S1, repeated QC testing
Description: as §1, §2

[4] = test system: K. pneumoniae ATCC BAA-2814 (KP1074), KPC-3; experiment: MIC, reference strain; type: cell-based; details: for MIC: KPC-3, BLI at the fixed concentration in brackets; for MIC (number of observations): Table S1, repeated QC testing
Description: as §1, §2

[5] = test system: K. pneumoniae ATCC BAA-1705 (KPM1123), KPC-2; experiment: MIC, reference strain; type: cell-based; details: for MIC: KPC-2, BLI at the fixed concentration in brackets; for MIC (number of observations): Table S1, repeated QC testing
Description: as §1, §2

[6] = test system: surveillance isolates of carbapenem-resistant strains of Enterobacterales; experiment: MIC testing of SENTRY surveillance CRE isolates (Table 4, Table S4); type: cell-based; details: for % Inhibited: at ≤8 µg/mL β-lactam (IMP/REL ≤1/4, MEM/VAB ≤4/8 (≤8/8) µg/mL), footnote b
[7] = test system: PAM4917 producing NDM-7; experiment: MIC, engineered isogenic strain; type: cell-based, P. aeruginosa; details: NDM-7, class B; BLIs at fixed 4 µg/mL
[8] = test system: PAM4907 producing PER-4; experiment: MIC, engineered isogenic strain; type: cell-based, P. aeruginosa; details: PER-4, class A; BLIs at fixed 4 µg/mL
[9] = test system: PAM4887 producing IMP-1; experiment: MIC, engineered isogenic strain; type: cell-based, P. aeruginosa; details: IMP-1, class B; BLIs at fixed 4 µg/mL
[10] = test system: Escherichia coli NCTC 13353 (ECM7514), CTX-M-15; experiment: MIC, reference strain; type: cell-based; details: for MIC: CTX-M-15, BLI at the fixed concentration in brackets; for MIC (number of observations): Table S1, repeated QC testing
Description: as §1
as §2, with “([27]). Meropenem was purchased from Carbosynth; ceftolozane was synthesized at Acme Bioscience, Palo Alto, CA, USA; all other antibiotics were from Sigma Aldrich. Xeruborbactam was synthesized at Qpex Biopharma, San Diego, CA, USA. Avibactam was purchased from eNovation, Chemicals LLC, Bridgewater, NJ, USA. Vaborbactam was synthesized at The Medicines Company, San Diego, CA. Relebactam, taniborbactam, and […] were synthesized at Acme Bioscience.” for “([27]).”

[11] = test system: PAM4801 producing GES-20; experiment: MIC, engineered isogenic strain; type: cell-based, P. aeruginosa; details: GES-20, class A; BLIs at fixed 4 µg/mL
[12] = test system: P. aeruginosa BAA-3197 (PA5257), KPC-2; experiment: MIC, reference strain; type: cell-based; details: for MIC: KPC-2, BLI at the fixed concentration in brackets; for MIC (number of observations): Table S1, repeated QC testing
[13] = molecular target: T1, VIM-1 in whole cells of KP1015 (OmpK36 GD repeat) (Pseudomonas aeruginosa, UniProt A0A0F7KYQ8); experiment: cell-based; set-up: species or system K. pneumoniae
T1 construct: endogenous in cells; host or cells: K. pneumoniae KP1015

[14] = Escherichia coli, read-out: MIC
[15] = Klebsiella pneumoniae, read-out: MIC
[16] = Klebsiella pneumoniae, ATCC700603, read-out: MIC
[17] = Klebsiella pneumoniae, ATCCBAA2814, read-out: MIC
[18] = Klebsiella pneumoniae, ATCCBAA1705, read-out: MIC
[19] = All surveillance CRE, read-out: MIC50
[20] = All surveillance CRE, read-out: MIC90
[21] = Non-CP CRE subset, read-out: MIC50
[22] = Non-CP CRE subset, read-out: MIC90
[23] = Escherichia coli, NCTC13353, read-out: MIC
[24] = Pseudomonas aeruginosa, BAA3197, read-out: MIC

## CO/N=C(\C(=O)N[C@@H]1C(=O)N2C(C(=O)[O-])=C(C[N+]3(C)CCCC3)CS[C@H]12)c1csc(N)n1 [FEP, cefepime]
[1]; [14]
  MIC: 64 µg/mL
[2]; [15]
  MIC: > 64 µg/mL
[3]; [16]
  MIC: 1 µg/mL
[3]
  MIC (number of observations): 0.5(1)-1(8)-2(1)-4(1) µg/ml
[4]; [17]
  MIC: > 64 µg/mL
[4]
  MIC (number of observations): > 32 µg/mL
[5]; [18]
  MIC: 32 µg/mL
[5]
  MIC (number of observations): 32 (40)->32(6) µg/ml
[6]
  MIC50: > 32 µg/mL
  MIC90: > 32 µg/mL
[6]; [19]
  MIC50: > 32 µg/mL
[6]; [20]
  MIC90: > 32 µg/mL
[6]; KPC subset
  % Inhibited: 11.70%
[6]; KPC subset, read-out: MIC50
  MIC50: > 32 µg/mL
[6]; KPC subset, read-out: MIC90
  MIC90: > 32 µg/mL
[6]; MBL subset
  % Inhibited: 0.00%
[6]; MBL subset, read-out: MIC50
  MIC50: > 32 µg/mL
[6]; MBL subset, read-out: MIC90
  MIC90: > 32 µg/mL
[6]; NDM subset
  % Inhibited: 0.00%
[6]; NDM subset, read-out: MIC50
  MIC50: > 32 µg/mL
[6]; NDM subset, read-out: MIC90
  MIC90: > 32 µg/mL
[6]; No MBL subset
  % Inhibited: 15.50%
[6]; No MBL subset, read-out: MIC50
  MIC50: > 32 µg/mL
[6]; No MBL subset, read-out: MIC90
  MIC90: > 32 µg/mL
[6]; Non-CP CRE subset
  % Inhibited: 15.20%
[6]; [21]
  MIC50: > 32 µg/mL
[6]; [22]
  MIC90: > 32 µg/mL
[6]; OXA-48 subset
  % Inhibited: 21.50%
[6]; OXA-48 subset, read-out: MIC50
  MIC50: > 32 µg/mL
[6]; OXA-48 subset, read-out: MIC90
  MIC90: > 32 µg/mL
[6]; VIM subset
  % Inhibited: 0.00%
[6]; VIM subset, read-out: MIC50
  MIC50: 32 µg/mL (≈ 66.6 µM)
[6]; VIM subset, read-out: MIC90
  MIC90: > 32 µg/mL
[7]
  MIC: > 64 µg/mL
[8]
  MIC: 64 µg/mL (≈ 133 µM)
[9]
  MIC: 64 µg/mL (≈ 133 µM)
[10]; [23]
  MIC: > 64 µg/mL
[10]
  MIC (number of observations): 32 (1)-64(5)->128 (10) µg/ml
[11]
  MIC: 2 µg/mL (≈ 4.16 µM)
[12]; [24]
  MIC: > 64 µg/mL
[12]
  MIC (number of observations): > 128 µg/mL

## O=C(O)c1c(F)ccc2c1OB(O)[C@@H]1C[C@H]21 [Xeruborbactam, xeruborbactam]
[1]; [14]
  MIC: 16 µg/mL
[2]; [15]
  MIC: 16 µg/mL
[3]; [16]
  MIC: 16 µg/mL
[3]
  MIC (number of observations): 8 (7)-16 (4) µg/ml
[4]; [17]
  MIC: 32 µg/mL
[4]
  MIC (number of observations): 16 (20)-32 (28) µg/ml
[5]; [18]
  MIC: 16 µg/mL
[5]
  MIC (number of observations): 8 (2)-16 (44)-32 (2) µg/ml
[6]
  % of isolates with xeruborbactam MIC of ≤8 µg/mL: 13.3%
[6]; read-out: MIC50 for xeruborbactam alone, range over all the subsets of isolates
  MIC50: 16 to 32 µg/mL
[6]; xeruborbactam alone at 4 µg/mL
  % of isolates without significant growth inhibition at 4 µg/mL: > 99%
[13]
  IC50: 70 ± 13.4 µM
[10]; [23]
  MIC: 8 µg/mL
[10]
  MIC (number of observations): 4 (1) - 8 (8) - 16 (2) µg/ml
[12]; [24]
  MIC: > 64 µg/mL
[12]
  MIC (number of observations): 64 (1)- >128 (13) µg/ml

## C[C@@H](O)[C@H]1C(=O)N2C(C(=O)O)=C(S[C@@H]3CN[C@H](C(=O)N(C)C)C3)[C@H](C)[C@H]12 [MEM, meropenem]
[1]; [14]
  MIC: 32 µg/mL
[2]; [15]
  MIC: 8 µg/mL
[3]; [16]
  MIC: ≤ 0.03 µg/mL
[4]; [17]
  MIC: > 64 µg/mL
[4]
  MIC (number of observations): > 32 µg/mL
[5]; [18]
  MIC: 32 µg/mL
[5]
  MIC (number of observations): 8 (2)-16 (16)-32 (28) µg/ml
[6]
  MIC90: 16 and > 32
[6]; All surveillance CRE
  % Inhibited: 30.20%
[6]; [19]
  MIC50: 32 µg/mL (≈ 83.4 µM)
[6]; [20]
  MIC90: > 32 µg/mL
[6]; KPC subset
  % Inhibited: 29.50%
[6]; KPC subset, read-out: MIC50
  MIC50: 32 µg/mL (≈ 83.4 µM)
[6]; KPC subset, read-out: MIC90
  MIC90: > 32 µg/mL
[6]; MBL subset
  % Inhibited: 9.00%
[6]; MBL subset, read-out: MIC50
  MIC50: > 32 µg/mL
[6]; MBL subset, read-out: MIC90
  MIC90: > 32 µg/mL
[6]; NDM subset
  % Inhibited: 6.30%
[6]; NDM subset, read-out: MIC50
  MIC50: > 32 µg/mL
[6]; NDM subset, read-out: MIC90
  MIC90: > 32 µg/mL
[6]; No MBL subset
  % Inhibited: 39.40%
[6]; No MBL subset, read-out: MIC50
  MIC50: 16 µg/mL (≈ 41.7 µM)
[6]; No MBL subset, read-out: MIC90
  MIC90: > 32 µg/mL
[6]; Non-CP CRE subset
  % Inhibited: 81.80%
[6]; [21]
  MIC50: 8 µg/mL (≈ 20.9 µM)
[6]; [22]
  MIC90: 16 µg/mL (≈ 41.7 µM)
[6]; OXA-48 subset
  % Inhibited: 37.20%
[6]; OXA-48 subset, read-out: MIC50
  MIC50: 32 µg/mL (≈ 83.4 µM)
[6]; OXA-48 subset, read-out: MIC90
  MIC90: > 32 µg/mL
[6]; VIM subset
  % Inhibited: 35.00%
[6]; VIM subset, read-out: MIC50
  MIC50: 16 µg/mL (≈ 41.7 µM)
[6]; VIM subset, read-out: MIC90
  MIC90: > 32 µg/mL
[7]
  MIC: 32 µg/mL (≈ 83.4 µM)
[8]
  MIC: 0.125 µg/mL (≈ 0.326 µM)
[9]
  MIC: 4 µg/mL (≈ 10.4 µM)
[10]; [23]
  MIC: ≤ 0.03 µg/mL
[11]
  MIC: 8 µg/mL (≈ 20.9 µM)
[12]; [24]
  MIC: > 64 µg/mL

## NCCN[C@H]1CC[C@H](CC(=O)N[C@H]2Cc3cccc(C(=O)O)c3OB2O)CC1 [Taniborbactam, taniborbactam]
[1]
  MIC: >64 µg/mL
[2]
  MIC: >64 µg/mL
[3]
  MIC: >64 µg/mL
[4]
  MIC: >64 µg/mL
[5]
  MIC: >64 µg/mL
[13]; read-out: IC50 of β-lactamase inhibition in whole cells
  IC50: 39.1 ± 8.2 µM
[10]
  MIC: >64 µg/mL
[12]
  MIC: >64 µg/mL
